# Data from US8895504B2, “Amylin derivatives” (priority 2008, dated 2014).
# *1 amine or outer side, *2 acyl side, *3 side chain or, on linkers, in order; H or OH if unused. Where a SMILES comes first, the peptide text is derived from it. Bridges are numbered along the chain shown (N, C = ends). The star is where a group is joined. C20 diacid = O=C(O)CCCCCCCCCCCCCCCCCCC(=O)*; C18 diacid = O=C(O)CCCCCCCCCCCCCCCCC(=O)*; γGlu = O=C(O)[C@H](CCC(=O)[*:2])N[*:1]; AEEA = NCCOCCOCC(=O)O
# Biological target: T1, Amylin 3(a) receptor (human calcitonin receptor (CTa) and RAMP-3) (Homo sapiens, UniProt O60896+P30988)
# T1 construct: expressed in transfected cells; host or cells: BHK570 cells, stably transfected with a CRE-luciferase reporter
# Assay: Luciferase assay (III), BHK Amylin 3(a)//CRE-luc cells
# Assay type: cell-based
# Details: BHK cells with Amylin 3(a) receptor and CRE luciferase reporter, 4 hours incubation; read-out: Potency Luciferase
# Outline: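 Read-out is CRE-driven luciferase luminescence, taken 30 min after LucLite addition at room temperature. Compounds were incubated 4 h at 37° C in assay medium (10% FBS, 10 mM Hepes, pH 7,4). The cell line is BHK570 co-transfected with human calcitonin receptor CTa and RAMP-3, seeded overnight before use.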
# T1 sequence (O60896 24-148): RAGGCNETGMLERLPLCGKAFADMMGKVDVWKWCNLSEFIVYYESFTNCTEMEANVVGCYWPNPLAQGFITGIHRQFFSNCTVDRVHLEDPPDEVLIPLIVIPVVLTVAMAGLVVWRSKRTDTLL
# T1 sequence (P30988 25-474): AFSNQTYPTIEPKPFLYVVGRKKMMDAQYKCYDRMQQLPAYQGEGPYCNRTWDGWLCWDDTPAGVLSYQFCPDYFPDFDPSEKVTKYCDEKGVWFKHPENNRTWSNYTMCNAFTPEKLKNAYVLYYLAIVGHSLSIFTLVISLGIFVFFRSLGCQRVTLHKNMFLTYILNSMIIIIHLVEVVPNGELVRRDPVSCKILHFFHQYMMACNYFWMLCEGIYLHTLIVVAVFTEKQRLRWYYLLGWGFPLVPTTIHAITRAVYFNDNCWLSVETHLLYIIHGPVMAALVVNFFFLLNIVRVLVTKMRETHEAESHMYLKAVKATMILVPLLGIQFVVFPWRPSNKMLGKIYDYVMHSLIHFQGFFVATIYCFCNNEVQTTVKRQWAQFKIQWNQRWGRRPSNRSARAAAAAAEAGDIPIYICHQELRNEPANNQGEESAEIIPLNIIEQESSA
row,SMILES,EC50 [nM]
1,"CC[C@H](C)[C@H](NC(=O)[C@@H]1CCCN1C(=O)CNC(=O)[C@H](Cc1ccccc1)NC(=O)[C@H](CC(N)=O)NC(=O)[C@H](CC(N)=O)NC(=O)[C@H](CO)NC(=O)[C@H](CO)NC(=O)[C@H](Cc1c[nH]cn1)NC(=O)[C@H](Cc1c[nH]cn1)NC(=O)[C@H](CC(C)C)NC(=O)[C@H](Cc1ccccc1)NC(=O)[C@H](CC(N)=O)NC(=O)[C@H](C)NC(=O)[C@H](CC(C)C)NC(=O)[C@H](CCCNC(=N)N)NC(=O)[C@H](CCC(N)=O)NC(=O)[C@@H](NC(=O)[C@H](C)NC(=O)[C@@H]1CSSC[C@H](NC(=O)[C@H](CCCCN)NC(=O)[C@H](Cc2c[nH]cn2)NC(=O)CC[C@H](NC(=O)CCCCCCCCCCCCCCCCCCC(=O)O)C(=O)O)C(=O)N[C@@H](CC(N)=O)C(=O)N[C@@H]([C@@H](C)O)C(=O)N[C@@H](C)C(=O)N[C@@H]([C@@H](C)O)C(=O)N1)[C@@H](C)O)C(=O)N[C@@H](CC(C)C)C(=O)N1CCC[C@H]1C(=O)N1CCC[C@H]1C(=O)N[C@H](C(=O)N[C@@H](CC(N)=O)C(=O)N[C@H](C(=O)NCC(=O)N[C@@H](CO)C(=O)N[C@@H](CC(N)=O)C(=O)N[C@H](C(=O)N[C@@H](Cc1ccc(O)cc1)C(N)=O)[C@@H](C)O)C(C)C)[C@@H](C)O [Example 28, N-alpha-[(S)-4-Carboxy-4-(19-carboxynonadecanoylamino)butyryl]-His-[His17]-pramlintide] ({C20 diacid-γGlu}-HKCNTATCATQRLANFLHHSSNNFGPILPPTNVGSNTY-NH2; disulfide 3-8)",0.1
2,"CC[C@H](C)[C@H](NC(=O)[C@@H]1CCCN1C(=O)CNC(=O)[C@H](Cc1ccccc1)NC(=O)[C@H](CC(N)=O)NC(=O)[C@H](CC(N)=O)NC(=O)[C@H](CO)NC(=O)[C@H](CO)NC(=O)[C@H](Cc1c[nH]cn1)NC(=O)[C@@H]1CCCN1C(=O)[C@H](CC(C)C)NC(=O)[C@H](Cc1ccccc1)NC(=O)[C@H](CC(N)=O)NC(=O)[C@H](C)NC(=O)[C@H](CC(C)C)NC(=O)[C@H](CCCNC(=N)N)NC(=O)[C@H](CCC(N)=O)NC(=O)[C@@H](NC(=O)[C@H](C)NC(=O)[C@@H]1CSSC[C@H](NC(=O)CC[C@H](NC(=O)CCCCCCCCCCCCCCCCCCC(=O)O)C(=O)O)C(=O)N[C@@H](CC(N)=O)C(=O)N[C@@H]([C@@H](C)O)C(=O)N[C@@H](C)C(=O)N[C@@H]([C@@H](C)O)C(=O)N1)[C@@H](C)O)C(=O)N[C@@H](CC(C)C)C(=O)N1CCC[C@H]1C(=O)N1CCC[C@H]1C(=O)N[C@H](C(=O)N[C@@H](CC(N)=O)C(=O)N[C@H](C(=O)NCC(=O)N[C@@H](CO)C(=O)N[C@@H](CC(N)=O)C(=O)N[C@H](C(=O)N[C@@H](Cc1ccc(O)cc1)C(N)=O)[C@@H](C)O)C(C)C)[C@@H](C)O [Example 15, N-alpha-[(S)-4-Carboxy-4-(19-carboxynonadecanoylamino)butyryl]-[Pro17]-pramlintide (2-37)] ({C20 diacid-γGlu}-CNTATCATQRLANFLPHSSNNFGPILPPTNVGSNTY-NH2; disulfide 1-6)",8
3,"CC[C@H](C)[C@H](NC(=O)[C@@H]1CCCN1C(=O)CNC(=O)[C@H](Cc1ccccc1)NC(=O)[C@H](CC(N)=O)NC(=O)[C@H](CC(N)=O)NC(=O)[C@H](CO)NC(=O)[C@H](CO)NC(=O)[C@H](Cc1c[nH]cn1)NC(=O)[C@H](Cc1c[nH]cn1)NC(=O)[C@H](CC(C)C)NC(=O)[C@H](Cc1ccccc1)NC(=O)[C@H](CC(N)=O)NC(=O)[C@H](C)NC(=O)[C@H](CC(C)C)NC(=O)[C@H](CCCNC(=N)N)NC(=O)[C@H](CCC(N)=O)NC(=O)[C@@H](NC(=O)[C@H](C)NC(=O)[C@@H]1CSSC[C@H](NC(=O)COCCOCCNC(=O)COCCOCCNC(=O)CC[C@H](NC(=O)CCCCCCCCCCCCCCCCC(=O)O)C(=O)O)C(=O)N[C@@H](CC(N)=O)C(=O)N[C@@H]([C@@H](C)O)C(=O)N[C@@H](C)C(=O)N[C@@H]([C@@H](C)O)C(=O)N1)[C@@H](C)O)C(=O)N[C@@H](CC(C)C)C(=O)N1CCC[C@H]1C(=O)N1CCC[C@H]1C(=O)N[C@H](C(=O)N[C@@H](CC(N)=O)C(=O)N[C@H](C(=O)NCC(=O)N[C@@H](CO)C(=O)N[C@@H](CC(N)=O)C(=O)N[C@H](C(=O)N[C@@H](Cc1ccc(O)cc1)C(N)=O)[C@@H](C)O)C(C)C)[C@@H](C)O [Example 62, N-alpha-[2-(2-{2-[2-(2-{2-[(S)-4-Carboxy-4-(17-carboxyheptadecanoylamino)butyrylamino]ethoxy}ethoxy)acetylamino]ethoxy}ethoxy)acetyl][His17]-pramlintide (2-37)] ({C18 diacid-γGlu-AEEA-AEEA}-CNTATCATQRLANFLHHSSNNFGPILPPTNVGSNTY-NH2; disulfide 1-6)",0.04
4,"CC[C@H](C)[C@H](NC(=O)[C@@H]1CCCN1C(=O)CNC(=O)[C@H](Cc1ccccc1)NC(=O)[C@H](CC(N)=O)NC(=O)[C@H](CC(N)=O)NC(=O)[C@H](CO)NC(=O)[C@H](CO)NC(=O)[C@H](Cc1c[nH]cn1)NC(=O)[C@H](Cc1c[nH]cn1)NC(=O)[C@H](CC(C)C)NC(=O)[C@H](Cc1ccccc1)NC(=O)[C@H](CC(N)=O)NC(=O)[C@H](C)NC(=O)[C@H](CC(C)C)NC(=O)[C@H](CCCNC(=N)N)NC(=O)[C@H](CCC(N)=O)NC(=O)[C@@H](NC(=O)[C@H](C)NC(=O)[C@@H]1CSSC[C@H](NC(=O)[C@H](CCCNC(=N)N)NC(=O)[C@H](Cc2c[nH]cn2)NC(=O)[C@H](Cc2c[nH]cn2)NC(=O)[C@H](CCC(=O)O)NC(=O)CC[C@H](NC(=O)CCCCCCCCCCCCCCCCCCC(=O)O)C(=O)O)C(=O)N[C@@H](CC(N)=O)C(=O)N[C@@H]([C@@H](C)O)C(=O)N[C@@H](C)C(=O)N[C@@H]([C@@H](C)O)C(=O)N1)[C@@H](C)O)C(=O)N[C@@H](CC(C)C)C(=O)N1CCC[C@H]1C(=O)N1CCC[C@H]1C(=O)N[C@H](C(=O)N[C@@H](CC(N)=O)C(=O)N[C@H](C(=O)NCC(=O)N[C@@H](CO)C(=O)N[C@@H](CC(N)=O)C(=O)N[C@H](C(=O)N[C@@H](Cc1ccc(O)cc1)C(N)=O)[C@@H](C)O)C(C)C)[C@@H](C)O [Example 67, N-alpha-[(S)-4-Carboxy-4-(19-carboxynonadecanoylamino)butyryl]-Glu-His-His-[Arg1,His17]-pramlintide] ({C20 diacid-γGlu}-EHHRCNTATCATQRLANFLHHSSNNFGPILPPTNVGSNTY-NH2; disulfide 5-10)",0.1
5,"CC[C@H](C)[C@H](NC(=O)[C@@H]1CCCN1C(=O)CNC(=O)[C@H](Cc1ccccc1)NC(=O)[C@H](CC(N)=O)NC(=O)[C@H](CCC(N)=O)NC(=O)[C@H](CO)NC(=O)[C@H](CO)NC(=O)[C@H](Cc1c[nH]cn1)NC(=O)[C@H](CCCNC(=N)N)NC(=O)[C@H](CC(C)C)NC(=O)[C@H](Cc1ccccc1)NC(=O)[C@H](CC(N)=O)NC(=O)[C@H](C)NC(=O)[C@H](CC(C)C)NC(=O)[C@H](CCCNC(=N)N)NC(=O)[C@H](CCC(N)=O)NC(=O)[C@@H](NC(=O)[C@H](C)NC(=O)[C@@H]1CSSC[C@H](NC(=O)[C@H](CCCNC(=N)N)NC(=O)[C@H](Cc2c[nH]cn2)NC(=O)[C@H](Cc2c[nH]cn2)NC(=O)COCCOCCNC(=O)CC[C@H](NC(=O)CCCCCCCCCCCCCCCCCCC(=O)O)C(=O)O)C(=O)N[C@@H](CC(N)=O)C(=O)N[C@@H]([C@@H](C)O)C(=O)N[C@@H](C)C(=O)N[C@@H]([C@@H](C)O)C(=O)N1)[C@@H](C)O)C(=O)N[C@@H](CC(C)C)C(=O)N1CCC[C@H]1C(=O)N1CCC[C@H]1C(=O)N[C@H](C(=O)N[C@@H](CC(N)=O)C(=O)N[C@H](C(=O)NCC(=O)N[C@@H](CO)C(=O)N[C@@H](CC(N)=O)C(=O)N[C@H](C(=O)N[C@@H](Cc1ccc(O)cc1)C(N)=O)[C@@H](C)O)C(C)C)[C@@H](C)O [Example 65, N-alpha-[2-(2-{2-[4-(S)-Carboxy-4-(19-carboxynonadecanoylamino)butyrylamino]ethoxy}ethoxy)acetyl]-His-His-[Arg1,Arg17,Gln21]-pramlintide] ({C20 diacid-γGlu-AEEA}-HHRCNTATCATQRLANFLRHSSQNFGPILPPTNVGSNTY-NH2; disulfide 4-9)",0.1
6,"CC[C@H](C)[C@H](NC(=O)[C@@H]1CCCN1C(=O)CNC(=O)[C@H](Cc1ccccc1)NC(=O)[C@H](CC(N)=O)NC(=O)[C@H](CC(N)=O)NC(=O)[C@H](CO)NC(=O)[C@H](CO)NC(=O)[C@H](Cc1c[nH]cn1)NC(=O)[C@H](C)NC(=O)[C@H](CC(C)C)NC(=O)[C@H](Cc1ccccc1)NC(=O)[C@H](CC(N)=O)NC(=O)[C@H](C)NC(=O)[C@H](CC(C)C)NC(=O)[C@H](CCCNC(=N)N)NC(=O)[C@H](CCC(N)=O)NC(=O)[C@@H](NC(=O)[C@H](C)NC(=O)[C@@H]1CSSC[C@H](NC(=O)[C@H](CCCCN)NC(=O)[C@H](CCCNC(=N)N)NC(=O)CC[C@H](NC(=O)CCCCCCCCCCCCCCCCCCC(=O)O)C(=O)O)C(=O)N[C@@H](CC(N)=O)C(=O)N[C@@H]([C@@H](C)O)C(=O)N[C@@H](C)C(=O)N[C@@H]([C@@H](C)O)C(=O)N1)[C@@H](C)O)C(=O)N[C@@H](CC(C)C)C(=O)N1CCC[C@H]1C(=O)N1CCC[C@H]1C(=O)N[C@H](C(=O)N[C@@H](CC(N)=O)C(=O)N[C@H](C(=O)NCC(=O)N[C@@H](CO)C(=O)N[C@@H](CC(N)=O)C(=O)N[C@H](C(=O)N[C@@H](Cc1ccc(O)cc1)C(N)=O)[C@@H](C)O)C(C)C)[C@@H](C)O [Example 19, N-alpha-[(S)-4-Carboxy-4-(19-carboxynonadecanoylamino)butyryl]-Arg-[Ala17]-pramlintide] ({C20 diacid-γGlu}-RKCNTATCATQRLANFLAHSSNNFGPILPPTNVGSNTY-NH2; disulfide 3-8)",0.1
